According to a melting point compilation (Tetko et al.; mined from patent text by program, amines drawn as free bases though some values may be those of a salt):

Q: For `C[C@]1(CN2CCC(Nc3ccc(OC(F)(F)F)cc3)CC2)Cn2cc([N+](=O)[O-])nc2O1`, which melting point is on record?
A: 108 to 109 °C

Q: With `CCN1CC(C)Oc2cccc3nc4c(c1c23)CCCC4` (stereo unspecified) as the compound, how does the melting point read?
A: 101 to 103 °C

Q: For `C=C(C)C(=O)Nc1ccc(Nc2ccccc2)cc1`, which melting point is on record?
A: 101 to 103 °C

Q: With `Nc1ncnc2c1ncn2C=CC=O` as the compound, how does the melting point read?
A: 258 to 260 °C

Q: Which melting point does the source give for `CN(C(=S)N[C@@H](Cc1ccc(NC(=O)c2c(Cl)cncc2Cl)cc1)C(=O)O)c1ccccc1C(=O)NCC1CCCCC1` here?
A: 175 °C

Q: Which melting point does the source give for `O=c1cc(-c2ccccc2)cc2n1CCN2` here?
A: 198 to 200 °C

Q: Which melting point does the source give for `O=C1CC(c2ccccc2)c2cc(Br)ccc2O1` (stereo unspecified) here?
A: 117 °C

Q: For `Cc1nnc2n1-c1sc(CCc3ccc(OC(C)C)cc3)cc1C(c1ccccc1Cl)=NC2`, which melting point is on record?
A: 121 to 124 °C

Q: With `COc1cccc(CNC(=O)c2nc3scc(-c4ccccc4)c3c(=O)[nH]2)c1` as the compound, how does the melting point read?
A: 177 to 178 °C

Q: Which melting point does the source give for `CCc1nc2cc(COC)c(Cl)cc2n1-c1ccc(CCNC(=O)NS(=O)(=O)c2ccc(C)cc2)cc1` here?
A: 135 °C

Q: Which melting point does the source give for `C=C(C)CC(O)C(Br)(Br)Br` (stereo unspecified) here?
A: 64 to 65 °C

Q: Which melting point does the source give for `CC(=O)c1cc(C)n(CCO)n1` here?
A: 78 to 79 °C

Q: For `CS(=O)(=O)Nc1ccc2[nH]ccc2c1`, which melting point is on record?
A: 133 to 135 °C

Q: With `O=C(OCCN1CCCCCC1)c1ccccc1Nc1ccnc2cc(C(F)(F)F)ccc12` as the compound, how does the melting point read?
A: 72 to 75 °C

Q: For `COc1ccc(C2(C)C(=O)c3c(N4CCN(C)CC4)cc(Cl)cc3N(Cc3cccc(N)c3)C2=O)cc1` (stereo unspecified), which melting point is on record?
A: 90 to 93 °C

Q: For `CCn1nc(OCC(=O)C(C)(C)C)c(-c2ccccc2)c1-c1ccc(S(C)(=O)=O)cc1`, which melting point is on record?
A: 158 to 161 °C

Q: For `CCCCCCCCc1c(CCCCCCCC)c(-c2ccccc2)n(-c2ccc(C)cc2)c1-c1ccccc1`, which melting point is on record?
A: 100 to 101 °C

Q: Which melting point does the source give for `CN(C)c1ccnc(N(C)C2CCN(CCCC(c3ccc(F)cc3)c3ccc(F)cc3)CC2)n1` here?
A: 106 °C

Q: For `COc1cc(OC)cc(Oc2ccc(C(=O)N(C(C)C)C3CCCCC3)cc2)c1`, which melting point is on record?
A: 140 °C

Q: Which melting point does the source give for `O=c1[nH]c2sc(Cl)c(C3CC3)c2[nH]c1=O` here?
A: > 260 °C

Q: Which melting point does the source give for `COc1cc(OC)cc(C(=O)NC(NC(=NC#N)Nc2ccc(Cl)nc2)C(C)(Cl)Cl)c1` (stereo unspecified) here?
A: 193 to 195 °C

Q: For `N#Cc1ccc(Cl)cc1OC[C@@H]1CO1`, which melting point is on record?
A: 85 to 86 °C

Q: For `C=C(C)C1(CC(C)C)CCN(C(Cc2ccccc2)C(=O)NC)C1=O` (stereo unspecified), which melting point is on record?
A: 91 to 92 °C

Q: For `CC#CCOc1ccc(S(=O)(=O)NC2(C(=O)O)CCCC2)cc1`, which melting point is on record?
A: 108 to 110 °C

Q: With `CCOC(=O)CN(CC(=O)OCC)[C@H]1CC[C@H](Nc2ncc3ncnc(Nc4ccc(F)c(Cl)c4)c3n2)CC1` as the compound, how does the melting point read?
A: 155 to 157 °C

Q: Which melting point does the source give for `CC1N(C(=O)c2ccc(C(F)(F)F)cc2)CC(n2cncn2)OC1(Cn1cncn1)c1ccc(Cl)cc1Cl` (stereo unspecified) here?
A: 191 to 201 °C

Q: For `O=C(O)c1ccc(NCCCCCCCCc2ccccc2)cc1`, which melting point is on record?
A: 113 to 115 °C

Q: Which melting point does the source give for `COC(=O)CCC#Cc1cc(Cl)ccc1NS(=O)(=O)c1ccc2nc(N)sc2c1` here?
A: 175 °C

Q: Which melting point does the source give for `COCOCc1nc2nc(O)cnc2c(=O)[nH]1` here?
A: 224 to 226 °C

Q: Which melting point does the source give for `COc1c([N+](=O)[O-])ncn1C` here?
A: 140 to 141 °C

Q: Which melting point does the source give for `COC(=O)C(=C(C)C)N1C(=O)[C@H]([C@H](C)OC(=O)OCc2ccc([N+](=O)[O-])cc2)[C@@H]1Cl` here?
A: 154 to 157 °C

Q: Which melting point does the source give for `O=C1CSC(N2CCN=C(c3ccccc3Cl)c3cc(Cl)ccc32)=N1` here?
A: 217 to 218 °C

Q: With `Cc1cc(C)c(C(=O)P2(=O)Oc3ccccc3-c3ccccc32)c(C)c1` (stereo unspecified) as the compound, how does the melting point read?
A: 109 °C

Q: Which melting point does the source give for `COc1ccc(-n2nc(CCC(=O)O)cc2-c2ccc(Cl)cc2)cc1` here?
A: 126 to 128 °C

Q: For `CNCCOc1ccc2ccc(NC(=O)c3ccc(OC)cc3)nc2n1`, which melting point is on record?
A: 146 °C

Q: With `Cc1ncccc1Cn1nnnc1-c1cc(Cl)ccc1Cl` as the compound, how does the melting point read?
A: 172 to 174 °C

Q: For `O=C1CCC(N2Cc3c(OCC4CCCOC4)cccc3C2=O)C(=O)N1` (stereo unspecified), which melting point is on record?
A: 118 to 120 °C

Q: For `Cc1csc(NC(=O)c2nc(C)cc(C#N)c2C)n1`, which melting point is on record?
A: 200 °C

Q: With `CS(=O)(=O)c1ccc(-c2c(F)c3cccccc-3c2-c2ccccc2)cc1` as the compound, how does the melting point read?
A: 120 to 122 °C

Q: Which melting point does the source give for `COc1cc(N)c(Cl)cc1C(=O)NCC1CCN(CCCCCNCc2cccs2)CC1` here?
A: 67 to 69 °C

Q: With `COC1=C(OC)C(=O)C2=C(CC(CCCCCCCCN3CCN(Cc4ccccc4)CC3)(c3ccccc3)C2)C1=O` as the compound, how does the melting point read?
A: 78 to 80 °C

Q: With `COc1cc2c(cc1OC)CN(CCc1ccc([N+](=O)[O-])cc1)CC2` as the compound, how does the melting point read?
A: 118 to 119 °C

Q: For `COC(=O)N(CCCc1ccccc1)[C@H]1CC[C@H](c2ccc(O)cc2)CC1`, which melting point is on record?
A: 128 to 133 °C

Q: With `COc1cccc(CN2CCC(n3c(C)c(-c4ccccc4)[nH]c3=O)CC2)c1` as the compound, how does the melting point read?
A: 227 to 228 °C

Q: Which melting point does the source give for `Nc1cc(F)ccc1C(=O)CCCN1CCN(c2cc3ccccc3cn2)CC1` here?
A: 124 to 128 °C

Q: For `COC(=O)C1CC(C#N)(c2ccc(OC)c3oc(C(C)C)nc23)CCC1=O` (stereo unspecified), which melting point is on record?
A: 150 °C

Q: With `O=C=Nc1cc(OCC(F)(F)F)ccc1OCC(F)(F)F` as the compound, how does the melting point read?
A: 50 to 52 °C

Q: Which melting point does the source give for `CCOC(=O)C=Cc1ccc(C(C)(C)C)c(NC(=O)CC2c3ccccc3Oc3ccccc32)c1` here?
A: 180 to 181 °C

Q: Which melting point does the source give for `CC(C)(C)C(=O)Nc1cc2c(O)nc[nH]c-2n1` here?
A: 295 °C

Q: For `CC12CCc3ccccc3C1=NNC(=O)C2` (stereo unspecified), which melting point is on record?
A: 189 to 190 °C

Q: With `Cc1nc(C)c(C=O)c(N)n1` as the compound, how does the melting point read?
A: 148 to 156 °C
